Experimental findings from US12161722B2, “Bifunctional heterocyclic compound having BTK degradation function via ubiquitin proteasome pathway, and use thereof” (KOREA RESEARCH INSTITUTE OF CHEMICAL TECHNOLOGY, priority 2021, dated 2024) are described below.

Structures are written as SMILES.

The term DC50 denotes the concentration at which degradation of the target reaches its halfway point.

The target of the test is T1, WT BTK protein (Homo sapiens, UniProt Q06187).
T1 construct: measured for intracellular BTK protein levels by Western blotting; endogenous in cells; host or cells: TMD-8 or RAMOS cells
T1 sequence (Q06187 whole entry): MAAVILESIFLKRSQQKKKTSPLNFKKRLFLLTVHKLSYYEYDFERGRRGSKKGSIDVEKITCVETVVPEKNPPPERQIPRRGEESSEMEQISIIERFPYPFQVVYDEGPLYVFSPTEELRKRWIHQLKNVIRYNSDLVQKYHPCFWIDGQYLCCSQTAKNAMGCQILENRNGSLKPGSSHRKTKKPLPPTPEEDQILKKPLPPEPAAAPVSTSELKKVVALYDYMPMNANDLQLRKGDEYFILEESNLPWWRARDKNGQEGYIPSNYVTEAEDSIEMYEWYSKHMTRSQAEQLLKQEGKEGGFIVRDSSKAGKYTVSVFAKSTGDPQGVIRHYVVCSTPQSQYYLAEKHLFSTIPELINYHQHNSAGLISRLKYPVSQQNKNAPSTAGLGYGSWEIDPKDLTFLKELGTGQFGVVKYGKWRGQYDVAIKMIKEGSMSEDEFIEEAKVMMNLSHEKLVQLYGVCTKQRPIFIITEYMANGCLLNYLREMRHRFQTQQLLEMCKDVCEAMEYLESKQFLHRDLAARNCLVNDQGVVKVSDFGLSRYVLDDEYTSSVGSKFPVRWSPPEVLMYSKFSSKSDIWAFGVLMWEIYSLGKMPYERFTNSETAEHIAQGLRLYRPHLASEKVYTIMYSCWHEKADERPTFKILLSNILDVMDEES
Put plainly: BTK protein degradation assay (Western blotting), WT BTK. The class given is cell-based. To be noted: concentration range accounting for 50% degradation of WT BTK protein, TMD-8 or RAMOS cells, 24 hours. The protocol: TMD-8, RAMOS, or 293T BTK MUT (C481S) cells were treated with the synthesized compounds and measured for intracellular BTK protein levels by Western blotting. The protocol of the experiment using TMD-8 cells is as follows.
TMD-8 cells were resuspended in an RPMI1640 medium (Hyclone, SH30027.01, 10% FBS (Hyclone, SV30207.02), 1% penicillin-streptomycin (Welgene, LS 202-02) and the cell suspension was seeded at a density of 1×10^6 cells/mL in an amount of 1 mL per well into 12-well plates.
The 12-well plates were treated as follows. A 10 mM stock was 1/10 diluted in series with DMSO ([…]) to form final concentrations of 10, 1, 0.1, 0.01, 0.001, and 0.0001 mM. The compounds with such concentrations were applied to cells, followed by harvesting the cells 24 hours later. For a negative control, a 1/10 dilution of DMSO in the medium (3 mL DMSO+27 mL medium) was used.
The 1-mL cell culture in each well was passed many times through a pipette and then transferred into a 1.5-mL microtube before centrifugation (500 g, 5 min, 4° C.). The supernatant was discarded and the cell pellet was washed with PBS. After centrifugation (500 g, 5 min, 4° C.) again, the supernatant was discarded and the cell pellet was taken.
A lysis buffer was prepared as follows. RIPA buffer (Biosesang, RC2038-050-00)+0.5 mM PMSF (SIGMA, P7626)+1×Protease/Phosphatase Inhibitor (Cell signaling, 5872S) was added in an amount […] per well and left for 30 minutes on ice (vortexing at 0 and 30 minutes) before sonication (5 cycles of pulse for 10 seconds and rest for 30 seconds, 70% amplification). The supernatant obtained by centrifugation (15000 g, 15 min, 4° C.) was transferred into a new microtube. Cells in each well of 96-well plates were 1/2 diluted with the RIPA buffer and incubated at 37° C. for 30 minutes with […] of a 50:1 mixture of BCA reagents A and B in BCA Protein Assay Kit (iNtRON, 21071). After being cooled for 10 minutes, the 96-well plates were measured for absorbance at 562 nm on the BioTek, SYNERGY H1 microplate reader. Samples were prepared by protein quantification based on the absorbance measurements and then boiled at 70° C. for 10 minutes. The sample buffer used in the case was prepared by mixing a NuPAGE or a Bolt 4× sample buffer (Invitrogen) and its 10× sample reducing agent depending on the gel to be used, and protein dilution was made in a RIPI buffer.
The samples were loaded in the same amount into a NuPAGE or Bolt Bis-tris 4-12% gradient gel and allowed to run therein (200 V, 35 minutes). The separated proteins were transferred onto a […] NC membrane, using Trans-blot Turbo (BIO-RAD) (1.3 A constant, 25V limit, 15 minutes). The membrane was blocked at room temperature for 1 hour with skim milk or Intercept Blocking Buffer (LI-COR, 927-60001):0.1% TBST=1:1. The membrane was incubated with Anti BTK Rabbit (1:1,000 in 5% skim milk/0.2% TBST, size: 77 kDa, Cell signaling Technology) at 4° C. overnight O/N or at room temperature for 2 hours and with Anti GAPDH Rabbit (1:10,000 in 5% BSA/0.2% TBST, size: 36 kDa, GENETEX) and Anti β-actin mouse (1:10,000 in 5% BSA/0.2% TBST, RT, size: 43 kDa, GENETEX) at room temperature for 1 or 3 hours. Then, the membrane was washed three times with 0.5% TBST for 5 minutes each time before incubation with the second antibody Anti-Rabbit IgG (1:5,000 in 5% Skim milk/TBST, CST), IRDye® 800CW Goat anti-Rabbit IgG Secondary Antibody (1:10,000 in 5% skim/TBST, RT 45 min), or IRDye® 680RD Goat anti-Mouse IgG Secondary Antibody (1:10,000 in 5% skim/TBST, RT 45 min) for 45 minutes at room temperature in a rocker. The membrane was washed five times with 0.5% TBST for 5 minutes in each time, followed by detection with LI-COR, Odyssey. In this regard, the detection proceeded, as it was, for house-keeping genes while using SuperSignal West Pico PLUS Chemiluminescent Substrate or SuperSignal West femto Maximum Sensitivity Substrate for BTK detection. […]
In the case of `Cc1cccc(C)c1Nc1nn(C)c2nc(Nc3ccc4c(c3)CN(C(=S)C3CCN(C(=O)COc5ccc6c(c5)C(=O)N(C5CCC(=O)NC5=O)C6=O)CC3)CC4)ncc12` (stereo not shown) [Compound 236, 5-(2-(4-(7-((3-((2,6-dimethylphenyl)amino)-1-methyl-1H-pyrazolo[3,4-d]pyrimidin-6-yl)amino)-1,2,3,4-tetrahydroisoquinoline-2-carbonothioyl)piperidin-1-yl)-2-oxoethoxy)-2-(2,6-dioxopiperidin-3-yl)isoindoline-1,3-dione], the 50% degradation concentration (DC50) was in the range of 0.1 to 10 nM.
For `Cc1cccc(C)c1Nc1nn(C)c2nc(Nc3ccc4c(c3)CN(C(=O)/C(C#N)=C/C3CCN(C(=O)C5CCN(c6ccc7c(c6)C(=O)N(C6CCC(=O)NC6=O)C7=O)CC5)CC3)CC4)ncc12` (stereo not shown) [Compound 240, (E)-2-(7-((3-((2,6-Dimethylphenyl)amino)-1-methyl-1H-pyrazolo[3,4-d]pyrimidin-6-yl)amino)-1,2,3,4-tetrahydroisoquinoline-2-carbonyl)-3-(1-(1-(2-(2,6-dioxopiperidin-3-yl)-1,3-dioxoisoindolin-5-yl)piperidine-4-carbonyl)piperidin-4-yl)acrylonitrile] the value was 0.1 to 10 nM; for `Cc1cccc(C)c1Nc1nn(C)c2nc(Nc3ccc4c(c3)CN(CC3CCN(C(=O)CNc5ccc6c(c5)CN(C5CCC(=O)NC5=O)C6=O)CC3)CC4)ncc12` (stereo not shown) [Compound 80, 3-(5-((2-(4-((7-((3-((2,6-Dimethylphenyl)amino)-1-methyl-1H-pyrazolo[3,4-d]pyrimidin-6-yl)amino)-3,4-dihydroisoquinolin-2 (1H)-yl)methyl)piperidin-1-yl)-2-oxoethyl)amino)-1-oxoisoindolin-2-yl)piperidin-2,6-one], 0.1 to 10 nM; for `Cc1cccc(C)c1Nc1nn(C)c2nc(Nc3ccc4c(c3)CN(CC(=O)NCc3ccc5c(c3)CN(C3CCC(=O)NC3=O)C5=O)CC4)ncc12` (stereo not shown) [Compound 94, 2-(7-((3-((2,6-dimethylphenyl)amino)-1-methyl-1H-pyrazolo[3,4-d]pyrimidin-6-yl)amino)-3,4-dihydroisoquinolin-2 (1H)-yl)-N-((2-(2,6-dioxopiperidin-3-yl)-1-oxoisoindolin-5-yl)methyl)acetamide], 10 to 1000 nM.
As for `COc1ccc(C(=O)N2CCC(CC(=O)N3CCc4cc(Nc5ncc6c(Nc7c(C)cccc7C)nn(C)c6n5)ccc4C3)CC2)cc1N1CCC(=O)NC1=O` [Compound 111, 1-(5-(4-(2-(6-((3-((2,6-Dimethylphenyl)amino)-1-methyl-1H-pyrazolo[3,4-d]pyrimidin-6-yl)amino)-3,4-dihydroisoquinolin-2 (1H)-yl)-2-oxoethyl)piperidine-1-carbonyl)-2-methoxyphenyl)dihydropyrimidine-2,4 (1H,3H)-dione], the half-maximal degradation concentration (DC50) lay within 10 to 1000 nM.
For `Cc1cccc(C)c1Nc1nn(C)c2nc(Nc3ccc4c(c3)CN(C(=O)C3CCN(C(=O)C5CCN(c6ccc7c(c6)C(=O)N(C6CCC(=O)NC6=O)C7=O)CC5)C3)CC4)ncc12` (stereo not shown) [Compound 67, 5-(4-(3-(7-((3-((2,6-Dimethylphenyl)amino)-1-methyl-1H-pyrazolo[3,4-d]pyrimidin-6-yl)amino)-1,2,3,4-tetrahydroisoquinoline-2-carbonyl)pyrrolidine-1-carbonyl)piperidin-1-yl)-2-(2,6-dioxopiperidin-3-yl)isoindoline-1,3-dione] the value was 10 to 1000 nM; for `Cc1cccc(C)c1Nc1nn(C)c2nc(Nc3ccc(N4CCN(CC5CN(c6ccc7c(c6)C(=O)N(C6CCC(=O)NC6=O)C7=O)C5)CC4)cc3)ncc12` (stereo not shown) [Compound 181, 5-(3-((4-(4-((3-((2,6-Dimethylphenyl)amino)-1-methyl-1H-pyrazolo[3,4-d]pyrimidin-6-yl)amino)phenyl)piperazin-1-yl)methyl)azetidin-1-yl)-2-(2,6-dioxopiperidin-3-yl)isoindoline-1,3-dione], 0.1 to 10 nM; for `Cc1cccc(C)c1Nc1nn(C)c2nc(Nc3ccc(C4CCN(CC5CN(c6ccc7c(c6)C(=O)N(C6CCC(=O)NC6=O)C7=O)C5)CC4)cc3)ncc12` (stereo not shown) [Compound 169, 5-(3-((4-(4-((3-((2,6-Dimethylphenyl)amino)-1-methyl-1H-pyrazolo[3,4-d]pyrimidin-6-yl)amino)phenyl)piperidin-1-yl)methyl)azetidin-1-yl)-2-(2,6-dioxopiperidin-3-yl)isoindoline-1,3-dione], 0.1 to 10 nM.
In the case of `Cc1cccc(C)c1Nc1nn(C)c2nc(Nc3ccc4c(c3)CN(CC3CCN(CC5CN(c6ccc7c(c6)C(=O)N(C6CCC(=O)NC6=O)C7=O)C5)CC3)CC4)ncc12` (stereo not shown) [Compound 50, 5-(3-((4-((7-((3-((2,6-Dimethylphenyl)amino)-1-methyl-1H-pyrazolo[3,4-d]pyrimidin-6-yl)amino)-3,4-dihydroisoquinolin-2 (1H)-yl)methyl)piperidin-1-yl)methyl)azetidin-1-yl)-2-(2,6-dioxopiperidin-3-yl)isoindoline-1,3-dione] it was 10 to 1000 nM.
In the case of `Cc1cccc(C)c1Nc1nn(C)c2nc(Nc3ccc(N4CCN(CCC5CCN(c6ccc7c(c6)C(=O)N(C6CCC(=O)NC6=O)C7=O)CC5)CC4)nc3)ncc12` (stereo not shown) [Compound 157, 5-(4-(2-(4-(5-((3-((2,6-dimethylphenyl)amino)-1-methyl-1H-pyrazolo[3,4-d]pyrimidin-6-yl)amino)pyridin-2-yl)piperazin-1-yl)ethyl)piperidin-1-yl)-2-(2,6-dioxopiperidin-3-yl)isoindoline-1,3-dione] it was 0.1 to 10 nM; in that of `Cc1cccc(C)c1Nc1nn(C)c2nc(Nc3ccc4c(c3)CN(C(=O)C3CC5(CCN(c6ccc7c(c6)C(=O)N(C6CCC(=O)NC6=O)C7=O)CC5)C3)CC4)ncc12` (stereo not shown) [Compound 124, 5-(2-(7-((3-((2,6-dimethylphenyl)amino)-1-methyl-1H-pyrazolo[3,4-d]pyrimidin-6-yl)amino)-1,2,3,4-tetrahydroisoquinoline-2-carbonyl)-7-azaspiro[3.5]nonan-7-yl)-2-(2,6-dioxopiperidin-3-yl)isoindoline-1,3-dione], 0.1 to 10 nM.
`Cc1cccc(C)c1Nc1nn(C)c2nc(Nc3ccc(N4CCN(CC5CN(c6ccc7c(c6)C(=O)N(C6CCC(=O)NC6=O)C7=O)C5)[C@H](C)C4)cc3)ncc12` (stereo partly drawn) [Compound 186, 5-(3-(((R)-4-(4-((3-((2,6-Dimethylphenyl)amino)-1-methyl-1H-pyrazolo[3,4-d]pyrimidin-6-yl)amino)phenyl)-2-methylpiperazin-1-yl)methyl)azetidin-1-yl)-2-(2,6-dioxopiperidin-3-yl)isoindoline-1,3-dione]: the DC50 lay within 0.1 to 10 nM.
For `Cc1cccc(C)c1Nc1nn(C)c2nc(Nc3ccc(C4CN(C[C@H]5CCN(c6ccc7c(c6)C(=O)N(C6CCC(=O)NC6=O)C7=O)C5)C4)cc3)ncc12` (stereo partly drawn) [Compound 176, 5-((R)-3-((3-(4-((3-((2,6-dimethylphenyl)amino)-1-methyl-1H-pyrazolo[3,4-d]pyrimidin-6-yl)amino)phenyl)azetidin-1-yl)methyl)pyrrolidin-1-yl)-2-(2,6-dioxopiperidin-3-yl)isoindoline-1,3-dione] the value was 0.1 to 10 nM.
